Data taken from ChEMBL document CHEMBL1275482, “Point mutation in the group B streptococcal pbp2x gene conferring decreased susceptibility to beta-lactam antibiotics” (2008).
Converted amounts (≈) assume the structure as drawn.

Assays:
[1] = test system: Streptococcus sp. 'group B'; experiment: Antimicrobial activity against group B Streptococcus sp. 'group B' serotype IA isolate 3047-05 by broth dilution method; assay type: functional
[2] = test system: Streptococcus sp. 'group B'; experiment: Antimicrobial activity against group B Streptococcus sp. 'group B' serotype IA isolate 5662-05 by broth dilution method; assay type: functional
[3] = test system: Streptococcus sp. 'group B'; experiment: Antimicrobial activity against group B Streptococcus sp. 'group B' serotype IA isolate 6649-05 by broth dilution method; assay type: functional
[4] = test system: Streptococcus sp. 'group B'; experiment: Antimicrobial activity against group B Streptococcus sp. 'group B' serotype IA isolate 7490-03 by broth dilution method; assay type: functional
[5] = test system: Streptococcus sp. 'group B'; experiment: Antimicrobial activity against group B Streptococcus sp. 'group B' serotype IA isolate 9012-04 by broth dilution method; assay type: functional
[6] = test system: Streptococcus sp. 'group B'; experiment: Antimicrobial activity against group B Streptococcus sp. 'group B' serotype IB isolate 5436-03 by broth dilution method; assay type: functional
[7] = test system: Streptococcus sp. 'group B'; experiment: Antimicrobial activity against group B Streptococcus sp. 'group B' serotype II isolate 3776-04 by broth dilution method; assay type: functional
[8] = test system: Streptococcus sp. 'group B'; experiment: Antimicrobial activity against group B Streptococcus sp. 'group B' serotype II isolate 9051-04 by broth dilution method; assay type: functional
[9] = test system: Streptococcus sp. 'group B'; experiment: Antimicrobial activity against group B Streptococcus sp. 'group B' serotype III isolate 3444-99 by broth dilution method; assay type: functional
[10] = test system: Streptococcus sp. 'group B'; experiment: Antimicrobial activity against group B Streptococcus sp. 'group B' serotype III isolate 7037-99 by broth dilution method; assay type: functional
[11] = test system: Streptococcus sp. 'group B'; experiment: Antimicrobial activity against group B Streptococcus sp. 'group B' serotype III isolate 3789-04 expressing pbp2x Q557E mutant and multilocus sequence type ST19 by broth dilution method; assay type: functional
[12] = test system: Streptococcus sp. 'group B'; experiment: Antimicrobial activity against group B Streptococcus sp. 'group B' serotype III isolate 6138-03 expressing pbp2x Q557E mutant and multilocus sequence type ST19 by broth dilution method; assay type: functional
[13] = test system: Streptococcus sp. 'group B'; experiment: Antimicrobial activity against group B Streptococcus sp. 'group B' serotype III isolate 7507-03 expressing pbp2x Q557E mutant and multilocus sequence type ST19 by broth dilution method; assay type: functional
[14] = test system: Streptococcus sp. 'group B'; experiment: Antimicrobial activity against group B Streptococcus sp. 'group B' serotype III isolate 8607-03 expressing pbp2x Q557E mutant and multilocus sequence type ST19 by broth dilution method; assay type: functional
[15] = test system: Streptococcus sp. 'group B'; experiment: Antimicrobial activity against group B Streptococcus sp. 'group B' serotype IV isolate 3454-03 by broth dilution method; assay type: functional
[16] = test system: Streptococcus sp. 'group B'; experiment: Antimicrobial activity against group B Streptococcus sp. 'group B' isolate 4214-03 by broth dilution method; assay type: functional
[17] = test system: Streptococcus sp. 'group B'; experiment: Antimicrobial activity against group B Streptococcus sp. 'group B' isolate 6149-03 by broth dilution method; assay type: functional
[18] = test system: Streptococcus sp. 'group B'; experiment: Antimicrobial activity against group B Streptococcus sp. 'group B' isolate 7368-04 by broth dilution method; assay type: functional
[19] = test system: Streptococcus sp. 'group B'; experiment: Antimicrobial activity against group B Streptococcus sp. 'group B' serotype V isolate 3386-05 by broth dilution method; assay type: functional
[20] = test system: Streptococcus sp. 'group B'; experiment: Antimicrobial activity against group B Streptococcus sp. 'group B' serotype V isolate 4857-03 by broth dilution method; assay type: functional
[21] = test system: Streptococcus sp. 'group B'; experiment: Antimicrobial activity against group B Streptococcus sp. 'group B' serotype V isolate 5677-04 by broth dilution method; assay type: functional
[22] = test system: Streptococcus sp. 'group B'; experiment: Antimicrobial activity against group B Streptococcus sp. 'group B' serotype V isolate 9171-03 by broth dilution method; assay type: functional
[23] = test system: Streptococcus sp. 'group B'; experiment: Antimicrobial activity against group B Streptococcus sp. 'group B' serotype III isolate 8607-03 expressing pbp2x Q557E mutant and harboring empty vector by broth dilution method; assay type: functional
[24] = test system: Streptococcus sp. 'group B'; experiment: Antimicrobial activity against group B Streptococcus sp. 'group B' serotype III isolate 8607-03 expressing pbp2x Q557E mutant and harboring plasmid expressing wild-type pbp2x by broth dilution method; assay type: functional
[25] = test system: Streptococcus sp. 'group B'; experiment: Antimicrobial activity against group B Streptococcus sp. 'group B' serotype III isolate 8607 with chromosomal pbp2x(Q557E) replaced by wild-type pbp2x through allelic exchange by broth dilution method

| SMILES | MIC [1] [µg/mL] | MIC [2] [µg/mL] | MIC [4] [µg/mL] | MIC [5] [µg/mL] | MIC [6] [µg/mL] | MIC [7] [µg/mL] | MIC [8] [µg/mL] | MIC [9] [µg/mL] | MIC [10] [µg/mL] | MIC [11] [µg/mL] | MIC [12] [µg/mL] | MIC [13] [µg/mL] | MIC [14] [µg/mL] | MIC [15] [µg/mL] | MIC [16] [µg/mL] | MIC [17] [µg/mL] | MIC [18] [µg/mL] | MIC [20] [µg/mL] | MIC [21] [µg/mL] | MIC [22] [µg/mL] | other results |
| --- | --- | --- | --- | --- | --- | --- | --- | --- | --- | --- | --- | --- | --- | --- | --- | --- | --- | --- | --- | --- | --- |
| CC1(C)S[C@@H]2[C@H](NC(=O)[C@H](N)c3ccccc3)C(=O)N2[C@H]1C(=O)O [AMPICILLIN] | 0.12 (≈ 0.343 µM) | 0.12 (≈ 0.343 µM) | 0.12 (≈ 0.343 µM) | 0.06 (≈ 0.172 µM) | 0.06 (≈ 0.172 µM) | 0.25 (≈ 0.715 µM) | 0.12 (≈ 0.343 µM) | 0.12 (≈ 0.343 µM) | 0.12 (≈ 0.343 µM) | 0.12 (≈ 0.343 µM) | 0.06 (≈ 0.172 µM) | 0.12 (≈ 0.343 µM) | 0.06 (≈ 0.172 µM) | 0.25 (≈ 0.715 µM) | 0.25 (≈ 0.715 µM) | 0.12 (≈ 0.343 µM) | 0.12 (≈ 0.343 µM) | 0.25 (≈ 0.715 µM) | 0.25 (≈ 0.715 µM) | 0.12 (≈ 0.343 µM) | MIC [3]: 0.25 µg/mL (≈ 0.715 µM); MIC [19]: 0.06 µg/mL (≈ 0.172 µM); MIC [23]: 0.06 µg/mL (≈ 0.172 µM); MIC [24]: 0.06 µg/mL (≈ 0.172 µM); MIC [25]: 0.06 µg/mL (≈ 0.172 µM) |
| Cc1nnc(SCC2=C(C(=O)O)N3C(=O)[C@@H](NC(=O)Cn4cnnn4)[C@H]3SC2)s1 [CEFAZOLIN] | 0.25 (≈ 0.55 µM) | 0.25 (≈ 0.55 µM) | 0.25 (≈ 0.55 µM) | 0.25 (≈ 0.55 µM) | 1 (≈ 2.2 µM) | 0.25 (≈ 0.55 µM) | 0.25 (≈ 0.55 µM) | 0.25 (≈ 0.55 µM) | 0.25 (≈ 0.55 µM) | 1 (≈ 2.2 µM) | 0.5 (≈ 1.1 µM) | 0.5 (≈ 1.1 µM) | 0.5 (≈ 1.1 µM) | 0.5 (≈ 1.1 µM) | 0.5 (≈ 1.1 µM) | 0.25 (≈ 0.55 µM) | 0.5 (≈ 1.1 µM) | 0.5 (≈ 1.1 µM) | 1 (≈ 2.2 µM) | 0.25 (≈ 0.55 µM) | MIC [3]: 0.5 µg/mL (≈ 1.1 µM); MIC [19]: 0.12 µg/mL (≈ 0.264 µM); MIC [23]: 16 µg/mL (≈ 35.2 µM); MIC [24]: 2 µg/mL (≈ 4.4 µM); MIC [25]: 2 µg/mL (≈ 4.4 µM) |
| CO/N=C(\C(=O)N[C@@H]1C(=O)N2C(C(=O)O)=C(COC(C)=O)CS[C@H]12)c1csc(N)n1 [CEFOTAXIME] | 0.06 (≈ 0.132 µM) | 0.06 (≈ 0.132 µM) | 0.12 (≈ 0.263 µM) | 0.06 (≈ 0.132 µM) | 0.25 (≈ 0.549 µM) | 0.12 (≈ 0.263 µM) | 0.06 (≈ 0.132 µM) | 0.06 (≈ 0.132 µM) | 0.12 (≈ 0.263 µM) | 0.25 (≈ 0.549 µM) | 0.25 (≈ 0.549 µM) | 0.12 (≈ 0.263 µM) | 0.25 (≈ 0.549 µM) | 0.25 (≈ 0.549 µM) | 0.12 (≈ 0.263 µM) | 0.06 (≈ 0.132 µM) | 0.06 (≈ 0.132 µM) | 0.06 (≈ 0.132 µM) | 0.12 (≈ 0.263 µM) | 0.12 (≈ 0.263 µM) | MIC [3]: 0.12 µg/mL (≈ 0.263 µM); MIC [19]: 0.06 µg/mL (≈ 0.132 µM); MIC [23]: 0.25 µg/mL (≈ 0.549 µM); MIC [24]: 0.015 µg/mL (≈ 0.0329 µM); MIC [25]: 0.03 µg/mL (≈ 0.0659 µM) |
| CO[C@@]1(NC(=O)Cc2cccs2)C(=O)N2C(C(=O)O)=C(COC(N)=O)CS[C@@H]21 [CEFOXITIN] | 8 (≈ 18.7 µM) | 8 (≈ 18.7 µM) | 2 (≈ 4.68 µM) | 16 (≈ 37.4 µM) | 16 (≈ 37.4 µM) | 8 (≈ 18.7 µM) | 8 (≈ 18.7 µM) | 8 (≈ 18.7 µM) | 8 (≈ 18.7 µM) | 16 (≈ 37.4 µM) | 16 (≈ 37.4 µM) | 16 (≈ 37.4 µM) | 16 (≈ 37.4 µM) | 8 (≈ 18.7 µM) | 4 (≈ 9.36 µM) | 8 (≈ 18.7 µM) | 4 (≈ 9.36 µM) | 4 (≈ 9.36 µM) | 16 (≈ 37.4 µM) | 4 (≈ 9.36 µM) | MIC [3]: 4 µg/mL (≈ 9.36 µM); MIC [19]: 16 µg/mL (≈ 37.4 µM); MIC [23]: 16 µg/mL (≈ 37.4 µM); MIC [24]: 2 µg/mL (≈ 4.68 µM); MIC [25]: 2 µg/mL (≈ 4.68 µM) |
| CO/N=C(\C(=O)N[C@@H]1C(=O)N2C(C(=O)O)=C(COC(N)=O)CS[C@H]12)c1ccco1 [CEFUROXIME] | 0.06 (≈ 0.141 µM) | 0.03 (≈ 0.0707 µM) | 0.06 (≈ 0.141 µM) | 0.06 (≈ 0.141 µM) | 0.25 (≈ 0.589 µM) | 0.12 (≈ 0.283 µM) | 0.06 (≈ 0.141 µM) | 0.06 (≈ 0.141 µM) | 0.06 (≈ 0.141 µM) | 0.12 (≈ 0.283 µM) | 0.25 (≈ 0.589 µM) | 0.12 (≈ 0.283 µM) | 0.12 (≈ 0.283 µM) | 0.06 (≈ 0.141 µM) | 0.12 (≈ 0.283 µM) | 0.06 (≈ 0.141 µM) | 0.06 (≈ 0.141 µM) | 0.06 (≈ 0.141 µM) | 0.12 (≈ 0.283 µM) | 0.06 (≈ 0.141 µM) | MIC [23]: 0.5 µg/mL (≈ 1.18 µM); MIC [24]: 0.06 µg/mL (≈ 0.141 µM); MIC [25]: 0.06 µg/mL (≈ 0.141 µM) |
| CC1(C)S[C@@H]2[C@H](NC(=O)Cc3ccccc3)C(=O)N2[C@H]1C(=O)O [PENICILLIN G] | 0.06 (≈ 0.179 µM) | 0.06 (≈ 0.179 µM) | 0.06 (≈ 0.179 µM) | 0.06 (≈ 0.179 µM) | 0.03 (≈ 0.0897 µM) | 0.12 (≈ 0.359 µM) | 0.06 (≈ 0.179 µM) | 0.06 (≈ 0.179 µM) | 0.06 (≈ 0.179 µM) | 0.12 (≈ 0.359 µM) | 0.12 (≈ 0.359 µM) | 0.12 (≈ 0.359 µM) | 0.12 (≈ 0.359 µM) | 0.12 (≈ 0.359 µM) | 0.12 (≈ 0.359 µM) | 0.06 (≈ 0.179 µM) | 0.12 (≈ 0.359 µM) | 0.12 (≈ 0.359 µM) | 0.12 (≈ 0.359 µM) | 0.06 (≈ 0.179 µM) | MIC [3]: 0.12 µg/mL (≈ 0.359 µM); MIC [19]: 0.03 µg/mL (≈ 0.0897 µM); MIC [23]: 0.12 µg/mL (≈ 0.359 µM); MIC [24]: 0.015 µg/mL (≈ 0.0449 µM); MIC [25]: 0.015 µg/mL (≈ 0.0449 µM) |
